Reference: patent US9388382B2, “Isolation of CD14 negative, CD45 positive and CD117 positive embryonic-like stem cells free of monocytes from human umbilical cord blood mononuclear cells” (THE BOARD OF TRUSTEES OF THE UNIVERSITY OF ILLINOIS, priority 2005, dated 2016)

Legend:
[1] = tested on: ConA-stimulated lymphocytes of diabetic NOD mouse; experiment: ConA-stimulated autoimmune lymphocyte proliferation in coculture with differentiated embryonic-like stem cells; assay type: cell-based; conditions: MGTA 10 μM, p<0.01
Protocol: The specific carboxypeptidase inhibitor, carboxypeptidase inhibitor 2-mercaptomethyl-3-guanidinoethylthiopropanoic acid (MGTA, 10 μM) was applied to block carboxypeptidase. First, embryonic-like stem cells were differentiated by treatment with 10 nM Exendin4+10 ng/ml GM-CSF+25 mM glucose in 7% FBS-DMEM culture medium for 3-5 days. Second, autoimmune lymphocytes were isolated form the diabetic NOD mouse and then cocultured with these embryonic-like stem cells in the presence MGTA. The mouse lymphocyte mitogen concanavalin A (ConA) was used to stimulate the proliferation of lymphocytes.

[2] = tested on: DNA methyltransferase (DNMT) activity of lymphocytes; experiment: DNA methyltransferase activity of lymphocytes regulated by CB-SC-derived NO; assay type: cell-based; conditions: presence of iNOS inhibitor
[3] = tested on: PHA- or IL-2-stimulated allogeneic lymphocytes; experiment: Mitogen-stimulated lymphocyte proliferation in coculture with CB-SC (cell count); assay type: cell-based, human; conditions: 200 μM/day L-NNA for 3 days, p<0.05
Protocol: (§1) For PHA stimulation, lymphocyte suspensions (1×10^6 cells/ml) with or without PHA (10 μg/ml, Sigma) were seeded onto CB-SC cell cultures in regular culture medium. PHA-stimulated lymphocytes without CB-SC served as positive control; lymphocytes cultured only in regular medium served as negative control. Lymphocytes cocultured with CB-SC without PHA stimulation served as an additional negative control. For IL-2 stimulation, IL-2 (500 U/ml, eBioscience) was used. After 5-6 days, the suspended lymphocytes were collected for cell count and/or flow analysis.
Unfixed CB-SC from same cord blood units served as controls. Additionally, we employed transwell culture system with 0.4 μm size (Sigma) to plant lymphocytes.
In experiments where N^ω-nitro-L-arginine (L-NNA, Sigma) was used to inhibit NO synthase, the drug (200 μM L-NNA) was added 1 h before PHA stimulation and then administrated 200 μM/day for additional two days. [Ziche, M., L. Morbidelli, E. Masini, S. Amerini, H. J. Granger, C. A. Maggi, P. Geppetti, and F. Ledda. 1994. Nitric oxide mediates angiogenesis in vivo and endothelial cell growth and migration in vitro promoted by substance P. J Clin Invest. 94:2036-2044].

[4] = tested on: intracytoplasmic IL-10 in allogeneic lymphocytes; experiment: Flow analysis of intracellular IL-10 production; assay type: cell-based, human; conditions: PHA-stimulated lymphocytes without CB-SC
Protocol: Allogeneic lymphocytes were cocultured with CB-SC at ratio 1:10 of CB-SC: lymphocytes, in the presence or absence of mitogen PHA. After coculture for 5-6 days, cells were permeabalized and evaluated for intracytoplasmic IL-10 level by flow cytometry. Isotype-matched mouse IgG1κ antibody served as negative control. Data represent one of at least three experiments with the similar results;
as §1
Flow analysis was preformed as previously described [Zhao, Y., H. Wang, and T. Mazzone. 2006. Identification of stem cells from human umbilical cord blood with embryonic and hematopoietic characteristics. Exp Cell Res. 2006, 312: 2454-2464. DOI: 10.1016/j.yexcr.2006.04.008. April 26; (Epub ahead of print)]. […] After staining, cells were analyzed using a CyAn ADP (DakoCytomation).

[5] = tested on: human peripheral blood lymphocyte subsets; experiment: Coculture of CB-SC with lymphocytes, flow analysis of T cell subsets; assay type: cell-based; conditions: PHA stimulation without CB-SC, p<0.05
Text: CB-SC adhere very tightly to the culture dishes and display large rounded morphology, it is easy to distinguish between CB-SC and lymphocytes. CB-SC growing at 80% confluence were used for coculture with allogeneic lymphocytes. Allogeneic lymphocytes were collected from buffy coats of healthy donors (Life-Source Blood Services, Glenview, Ill.) after Ficoll-Hypaque separation followed by removing all attached cells and then cocultured with CB-SC at the ratio (1:10) [Zhao, Y., H. Wang, and T. Mazzone. 2006. Identification of stem cells from human umbilical cord blood with embryonic and hematopoietic characteristics. Exp Cell Res. 2006, 312: 2454-2464. DOI: 10.1016/j.yexcr.2006.04.008. April 26; (Epub ahead of print)] of CB-SC.
as §1, with “After 5-6 days, the suspended lymphocytes were collected for cell count and/or flow analysis.” left out
Flow analysis was preformed as previously described [Zhao, Y., H. Wang, and T. Mazzone. […] After staining, cells were analyzed using a CyAn ADP (DakoCytomation). […]

Which “reversal of stem-cell inhibition of ConA-stimulated lymphocyte proliferation” value [1] does the source give for “2-mercaptomethyl-3-guanidinoethylthiopropanoic acid [MGTA]” here?
Its value is “completely revert their inhibition”.

With `CC(=N)NCc1cccc(CN)c1` [1400 W] as the compound, how does the “blocking of regulation of lymphocyte DNMT activity by CB-SC-derived NO” value [2] read?
The value was “significantly blocked”.

With `NC(=NCCC[C@H](N)C(=O)O)N[N+](=O)[O-]` [L-NNA, N-omega-nitro-L-arginine] as the compound, how does the “lymphocyte cell number in presence vs absence of L-NNA” value [3] read?
The value was “about 4 fold”.

How did the IL-10-positive cells [4] turn out when phytohaemagglutinin [PHA] was run?
The IL-10-positive cells was 80%.

And the “increase of CD8^+ and decrease of CD4^+ T cell percentage vs lymphocytes alone” value [5]?
The value was “more than 2 fold”.
